# Laboratory results: patent US11583507B2, “Direct AMPK activator compounds” (SOCIETE DES PRODUITS NESTLE S.A., priority 2018, dated 2023)
# How the values were obtained:
# C2C12 AMPKα1α2−/− cells = test: Glucose uptake (3H-2-deoxyglucose) in differentiated C2C12 AMPKα1α2−/− cells; type: cell-based, murine; details: 30 or 100 μM Lusianthridin, 300 nM Insulin, 1 h at 37° C
# Excerpt: C2C12 AMPK α1α2 double knockout cell lines were generated by transient transfection of wild type cells with plasmids containing Cas9 enzyme linked to green fluorescent protein expression and Cas9 guide RNA sequences targeting the murine AMPK α1 subunit (sc-430618, SantaCruz) and the murine AMPK α2 subunit (sc-430803, SantaCruz). Cells positive for green fluorescent protein expression were single cell sorted by flow cytometry into 96-well plates containing growth medium and analysed for loss of AMPK signaling following expansion of the clones.
# Differentiated C2C12 AMPKα1α2+/+ and AMPKα1α2−/− cells were treated with either vehicle (0.2% DMSO), 30 μM or 100 μM Lusianthridin for 1 h at 37° C. […] Finally, differentiated C2C12 AMPKα1α2+/+ and AMPKα1α2−/− cells were treated with either vehicle (0.2% DMSO) or 100 μM Lusianthridin in the presence or absence of 15 nM Wortmanin for 1 h at 37° C. For the Wortmanin experiments, differentiated C2C12 cells were pre-incubated with DMSO or Wortmanin for 1 h prior to treatment.
# Glucose uptake was determined by monitoring the uptake of 3H-2-deoxyglucose into cells. C2C12 AMPKα1α2+/+ and AMPKα1α2−/− cells were maintained in DMEM GlutaMAX supplemented with 20% (vol/vol) FBS and 100 U/ml penicillin G, and 100 μg/ml streptomycin. […] Cells were lysed and the quantity of ^3H determined in these samples using a scintillation counter.
# AMPKα1β1γ1 (111) = biological target: T1, AMPKα1β1γ1 (111) (Homo sapiens, UniProt P54619+Q13131+Q9Y478); test: AMPK in vitro activity assay (HTRF-KinEASE), α1-containing complex; type: biochemical; details: fold activation vs complex without compound
# T1 construct: His; made in house; host or cells: bacteria
# Procedure: (§1) Lusianthridin (CAS 87530-30-1) was isolated from Thunia alba fruit. It was sourced from Analyticon (NP-012362). The plant was purchased through Analyticon's biomaterial supplier in 2003. The country of origin is Nepal. The AMPK heterotrimers were expressed in bacteria and purified through the His-α subunit by nickel purification. AMPK complexes were purified through gel filtration and phosphorylated by incubation with CaMKKβ, and further purified with a final gel filtration purification step. Phosphorylated purified AMPK was incubated with varying concentrations of ligand for 30 mins using substrate and reagents from the HTRF-KinEASE Cisbio assay kit (STK S1 Kit). Phosphorylation of the substrate was measured by incubating with donor and acceptor antibodies for 2 h at room temperature as per the manufacturer's protocol (and Coulerie et al., (2016) PMID: 27792327) and phosphorylated peptide detected by performing HTRF. The 665 nm/620 nm ratio was determined and the results are plotted as fold activation compared to the respective AMPK complex without any compound.
# [1] = test system: AMPK β1 S108A mutant (phosphorylation of ACC); test: pACC (HTRF and western blot) in AMPKβ1/β2 double knockout U2-OS Flp-In T-Rex cells stably expressing β1 S108A mutant; type: cell-based, human
# Excerpt: AMPKβ1/β2 double knockout U2-OS Flp-In™ T-Rex™ cell lines were generated by Horizon Discovery (Cambridge, UK). Cells were genotyped and analysed by western blotting to confirm that there was a complete knockout of AMPKβ1/β2. We took these AMPKβ1/β2 double knockout cells, and re-introduced the expression of human β1 wild-type (WT) or a β1 Serine 108 to alanine mutation (S108A). This was achieved using the Flp-In™ system (Invitrogen) present in this cell line and stable cells expressing β1 WT or a β1 S108A mutant were generated according to the manufacturers' protocols. Re-expression of the β1 subunit was confirmed by western blot analysis.
# Cells stably expressing β1 WT or a β1 S108A mutant were treated with varying concentrations of Lusianthridin and subjected to the pACC HTRF (Cisbio) assay or western blot analysis to determine phosphorylation of the AMPK substrate, ACC, in cells lysates. Western blots were quantified using the LI-COR odyssey system and shown as the ratio of the antibody signal from pACC divided by total ACC.
# [2] = test system: differentiated C2C12 cells; test: Glucose uptake (3H-2-deoxyglucose) into differentiated C2C12 cells; type: cell-based; details: Lusianthridin 100 μM for 4 h at 37 C
# Procedure: C2C12 cells were maintained in DMEM GlutaMAX supplemented with 10% (vol/vol) FBS and 100 U/ml penicillin G, and 100 μg/ml streptomycin. C2C12 myoblasts were differentiated into myotubes by 7 days of culture in DMEM GlutaMAX supplemented with 2% (vol/vol) horse serum and antibiotics. Cells were transferred to serum-free media for 24 hours, before equilibrating with bicarbonate-free medium prior to treatment. Cells were treated with Control (DMSO 1% final concentration) or 100 μM Lusianthridin in the presence of ^3H-2-deoxyglucose (in Krebs-Hepes buffer containing sodium pyruvate). Cells were lysed and the quantity of ^3H determined in these samples using a scintillation counter.
# Activation of AMPK in muscle cells has been previously shown to increase glucose uptake. […] Differentiated C2C12 cells were treated with either control or 100 μM Lusianthridin for 4 h at 37 C. Glucose uptake was determined by monitoring the uptake of ^3H-2-deoxyglucose into cells. […] This is consistent with the important role of AMPK in mediating glucose uptake in muscle.
# [3] = biological target: T2, AMPK α2β1γ1 S108A mutant (211 S108A) (Homo sapiens, UniProt P54619+P54646+Q9Y478, S108A); test: AMPK in vitro activity assay (HTRF-KinEASE), β1 S108A mutant; type: biochemical
# T2 construct: His; made in house; host or cells: bacteria
# Procedure: as §1
# [4] = test system: AMPK substrate, acetyl-CoA carboxylase (ACC); test: pACC HTRF assay in U2OS Flp-In T-REx cells; type: cell-based; details: 1 h, varying concentrations, dose-dependent
# Procedure: U2OS Flp-In T-REx cells were seeded at 100 K in a 96-well plate and left overnight at 37 C in DMEM GlutaMAX (Thermo Fisher Scientific) supplemented with 10% (vol/vol) FBS and 100 U/ml penicillin G, and 100 μg/ml streptomycin. Cells were treated for 1 h with varying concentrations of Lusianthridin in media lacking FBS and then cells were lysed in 50 μl of Cisbio lysis buffer #1 supplemented with blocking solution as per the manufacturer's protocol (Cisbio). Cells were lysed for 30 mins at room temperature before 16 μl of lysate was incubated with 4 μl of the HTRF antibodies (1:40 dilution of the acceptor and donor (p)ACC antibodies, as per the manufacturers protocol). Lysates were incubated overnight with the antibodies before 665 nm/620 nm ratio was determined using a MolecularDevices i3 plate reader (with a HTRF cartridge add-on). For western blot analysis, SDS-sample buffer was added to the remainder of the lysate, denatured at 95 C and then subjected to western blot analysis with phospho-specific and total ACC antibodies (Cell Signalling). Bands were visualized by incubating with Li-Cor secondary antibody and scanned on a Li-Cor Odyssey machine.
# T2 sequence (P54646 whole entry): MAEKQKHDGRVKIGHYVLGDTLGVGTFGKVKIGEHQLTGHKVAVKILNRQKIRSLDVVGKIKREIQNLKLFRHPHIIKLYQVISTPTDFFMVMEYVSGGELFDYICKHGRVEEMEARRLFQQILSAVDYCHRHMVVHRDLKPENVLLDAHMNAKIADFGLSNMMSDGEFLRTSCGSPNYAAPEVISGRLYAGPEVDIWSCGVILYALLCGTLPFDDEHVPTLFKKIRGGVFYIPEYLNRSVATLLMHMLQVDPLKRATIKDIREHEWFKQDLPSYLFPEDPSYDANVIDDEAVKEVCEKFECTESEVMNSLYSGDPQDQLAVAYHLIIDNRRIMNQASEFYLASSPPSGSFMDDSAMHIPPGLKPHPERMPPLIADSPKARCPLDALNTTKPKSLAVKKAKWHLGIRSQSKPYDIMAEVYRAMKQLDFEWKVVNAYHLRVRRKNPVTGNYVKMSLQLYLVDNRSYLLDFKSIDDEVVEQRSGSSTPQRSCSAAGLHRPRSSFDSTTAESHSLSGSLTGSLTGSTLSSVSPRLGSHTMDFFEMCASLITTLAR
# T2 sequence (Q9Y478 whole entry S108A): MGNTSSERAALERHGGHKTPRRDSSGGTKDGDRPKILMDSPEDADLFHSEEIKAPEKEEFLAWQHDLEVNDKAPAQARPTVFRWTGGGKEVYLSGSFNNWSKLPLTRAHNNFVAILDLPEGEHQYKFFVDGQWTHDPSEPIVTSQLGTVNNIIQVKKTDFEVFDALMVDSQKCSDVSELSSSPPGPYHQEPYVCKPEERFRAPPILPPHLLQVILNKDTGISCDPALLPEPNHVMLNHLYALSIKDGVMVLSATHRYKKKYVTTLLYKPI
# T2 sequence (P54619 whole entry): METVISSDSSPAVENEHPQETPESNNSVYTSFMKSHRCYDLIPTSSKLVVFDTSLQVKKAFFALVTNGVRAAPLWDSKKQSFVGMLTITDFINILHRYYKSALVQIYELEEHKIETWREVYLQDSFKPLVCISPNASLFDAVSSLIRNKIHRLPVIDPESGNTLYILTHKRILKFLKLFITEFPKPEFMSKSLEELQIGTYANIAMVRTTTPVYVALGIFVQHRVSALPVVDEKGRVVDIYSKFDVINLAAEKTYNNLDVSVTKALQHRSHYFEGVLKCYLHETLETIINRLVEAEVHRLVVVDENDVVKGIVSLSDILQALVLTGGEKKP
# T1 sequence (Q13131 whole entry): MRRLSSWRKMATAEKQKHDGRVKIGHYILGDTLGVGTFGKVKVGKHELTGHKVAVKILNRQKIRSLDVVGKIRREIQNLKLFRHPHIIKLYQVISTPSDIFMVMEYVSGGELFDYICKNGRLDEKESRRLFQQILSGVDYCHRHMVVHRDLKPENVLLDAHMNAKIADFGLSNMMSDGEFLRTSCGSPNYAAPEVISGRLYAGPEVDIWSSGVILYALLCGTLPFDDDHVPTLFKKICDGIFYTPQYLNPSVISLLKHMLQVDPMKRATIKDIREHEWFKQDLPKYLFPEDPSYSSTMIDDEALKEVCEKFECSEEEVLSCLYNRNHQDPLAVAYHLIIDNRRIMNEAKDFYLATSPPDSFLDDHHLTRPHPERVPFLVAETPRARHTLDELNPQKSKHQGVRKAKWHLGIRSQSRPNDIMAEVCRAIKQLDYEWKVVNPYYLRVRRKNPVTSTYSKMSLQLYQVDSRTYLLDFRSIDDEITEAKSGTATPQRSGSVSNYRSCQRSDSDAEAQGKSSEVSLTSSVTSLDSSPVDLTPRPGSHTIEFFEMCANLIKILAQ
# T1 sequence (Q9Y478 whole entry): as the sequence (Q9Y478 whole entry S108A) above, with A108S counted along it
# T1 sequence (P54619 whole entry): as the sequence (P54619 whole entry) above
smiles,measurement,setting,value
"COc1cc(O)c2c(c1)CCc1cc(O)ccc1-2 [Lusianthridin, 7-Methoxy-9,10-dihydrophenanthrene-2,5-diol]",glucose uptake (fold change relative to control),C2C12 AMPKα1α2−/− cells,abolished
same,activation of bacterially-expressed AMPKα1β1γ1 complexes,AMPKα1β1γ1 (111),Activates
same,phosphorylation of ACC (western blot),[1],did not increase phosphorylation of ACC
same,pACC (HTRF assay),"[1]; varying concentrations, 30 mins at 37 C",did not increase pACC
same,fold increase in glucose uptake relative to control,[2],~2 fold
same,activation of AMPK complexes with the β1 S108A mutation,[3],does not activate
same,phosphorylation of the AMPK substrate ACC (pACC HTRF),[4],increases
